Values after ≈ are worked out from the molar mass of the structure shown. “Also recorded” adds a separate entry of the source.
Key:
anthrax = assay: microbe, parasite or virus in culture; type: cell-based; settings: Bacillus anthracis, read-out: MIC against anthrax, mid point adopted in the analyses
inhalational anthrax = settings: human, in vivo; cited from earlier work
Bacillus anthracis = settings: rhesus monkey, in vivo; cited from earlier work
[1] = tested on: gram positive and negative organisms; settings: cited from earlier work

O=C(O)c1cn(C2CC2)c2cc(N3CCNCC3)c(F)cc2c1=O [ciprofloxacin]
MIC (anthrax): 0.07 µg/mL (≈ 0.211 µM)
overall survival (inhalational anthrax): 55%
protection from the disease while on therapy (Bacillus anthracis): sufficient protection; also recorded: adequately protected
survival rate (Bacillus anthracis): 90%
MIC range of organisms in the literature study [1]: 0.008−0.4 μg/mL
